Data on 29 compounds can be found in US20250388574A1, “HETEROCYCLIC COMPOUNDS AS TRIGGERING RECEPTOR EXPRESSED ON MYELOID CELLS 2 AGONISTS AND METHODS OF USE” (AMGEN INC., priority 2020, published 2025).

In this assay the target is hTREM2 (Homo sapiens, UniProt Q9NZC2). The experiment in a line: Phospho-Syk AlphaScreen/AlphaLISA assay in TREM2 and DAP12 overexpressing HEK293 cells (Example A1). The class given is cell-based. More on the design: expressed in transfected cells. The note with it: HEK293 cells; for EC50: read-out: hTREM2 EC50. In outline: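 Single-cell-cloned HEK293 stably overexpressing TREM2 and DAP12, plated 20,000 cells/well for 20 h, then exposed to compounds (1% DMSO) 45 min at room temperature. Lysates probed for phospho-Syk by AlphaLISA sandwich (anti-pSyk, biotinylated anti-Syk); signal normalized to percent of control (100 nM anti-TREM2 antibody vs isotype) and fitted by 4-parameter logistic.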
(In general: Alpha assays give light when donor and acceptor beads are brought close together.)

Each structure is given as a SMILES string. A value given as a limit tells only on which side of the number the result lay.

hTREM2, sequence (Q9NZC2 19-230): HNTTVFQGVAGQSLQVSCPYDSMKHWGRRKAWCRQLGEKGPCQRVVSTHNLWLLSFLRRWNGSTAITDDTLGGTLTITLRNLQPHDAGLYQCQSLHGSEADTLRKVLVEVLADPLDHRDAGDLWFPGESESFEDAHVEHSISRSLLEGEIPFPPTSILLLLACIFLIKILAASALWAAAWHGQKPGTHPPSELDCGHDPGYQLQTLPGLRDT
hTREM2, sequence (O43914 22-113 partner): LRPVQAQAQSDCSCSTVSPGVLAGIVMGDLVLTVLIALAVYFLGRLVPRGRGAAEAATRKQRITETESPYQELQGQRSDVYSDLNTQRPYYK

As for `Cc1nc2cc(N3CCO[C@H](c4cccnc4)C3)nc(-c3ccc(Cl)cc3F)c2c(=O)n1C` [Example 210, (R)-5-(4-chloro-2-fluorophenyl)-2,3-dimethyl-7-(2-(pyridin-3-yl)morpholino)pyrido[4,3-d]pyrimidin-4(3H)-one], the Emax result is on record as “++++ (Emax>300)” and the EC50 fell in the range of 50 to 500 nM.
In the same order, the values of `Cc1nc2cc(N3CCO[C@H](c4cnn(C)c4)C3)cc(-c3ccc(Cl)cc3F)c2c(=O)n1C` [Example 221, (R)-5-(4-chloro-2-fluorophenyl)-2,3-dimethyl-7-(2-(1-methyl-1H-pyrazol-4-yl)morpholino)quinazolin-4(3H)-one] are “++++ (Emax>300)” and 50 to 500 nM.
For `Cc1nc2cc(N3CCO[C@@H](c4cnn(C)c4)C3)nc(-c3ccc(Cl)cc3F)c2c(=O)n1C1CCCCC1` [Example 18, 5-(4-chloro-2-fluorophenyl)-3-cyclohexyl-2-methyl-7-((2S)-2-(1-methyl-1H-pyrazol-4-yl)-4-morpholinyl)pyrido[4,3-d]pyrimidin-4(3H)-one], the Emax entry is “++ (Emax>100 and ≤200)”; the EC50 is 500 to 3000 nM.
In the case of `Cc1nc2cc(N3CCO[C@H](c4cnn(C)c4)C3)nc(-c3ncc(Cl)cc3F)c2c(=O)n1C` [Example 217, (R)-5-(5-chloro-3-fluoropyridin-2-yl)-2,3-dimethyl-7-(2-(1-methyl-1H-pyrazol-4-yl)morpholino)pyrido[4,3-d]pyrimidin-4(3H)-one], the Emax entry is “+++ (Emax>200 and ≤300)”; the EC50 was 3000 to 100000 nM.
In the case of `CCn1c(C)nc2cc(N3CCO[C@@H](c4ccnc(C)c4)C3)nc(-c3ccc(Cl)cc3F)c2c1=O` [Example 149, 5-(4-chloro-2-fluorophenyl)-3-ethyl-2-methyl-7-((2S)-2-(2-methyl-4-pyridinyl)-4-morpholinyl)pyrido[4,3-d]pyrimidin-4(3H)-one], the Emax result is “+++ (Emax>200 and ≤300)”; the EC50 was less than 50 nM.
Regarding `Cc1nc2cc(N3CCO[C@H](c4noc(C5CC5)n4)C3)nc(-c3ccc(Cl)cc3F)c2c(=O)n1C` [Example 201, (S)-5-(4-chloro-2-fluorophenyl)-7-(2-(5-cyclopropyl-1,2,4-oxadiazol-3-yl)morpholino)-2,3-dimethylpyrido[4,3-d]pyrimidin-4(3H)-one], the Emax entry is recorded as “++++ (Emax>300)” and the EC50 is 50 to 500 nM.
In the same order, the values of `Cc1nc2cc(N3CCC[C@H](c4cn[nH]c4)C3)nc(-c3ccc(Cl)cc3F)c2c(=O)n1C` (single isomer, unassigned) [Example 108] are “++++ (Emax>300)” and 50 to 500 nM.
Take `Cc1nc2cc(C3=CC(c4cnn(C)c4)OCC3)nc(-c3ccc(Cl)cc3F)c2c(=O)n1C` (racemic) [Example 164, 5-(4-chloro-2-fluorophenyl)-2,3-dimethyl-7-(6-(1-methyl-1H-pyrazol-4-yl)-3,6-dihydro-2H-pyran-4-yl)pyrido[4,3-d]pyrimidin-4(3H)-one]: the Emax entry was “+++ (Emax>200 and ≤300)”; the EC50 lay within 50 to 500 nM.
For the compound `Cc1nc2cc(N3CCO[C@@H](c4ccsc4)C3)nc(-c3ccc(Cl)cc3F)c2c(=O)n1C` (single isomer, unassigned) [Example 55], the Emax result is “++++ (Emax>300)” and the EC50 is 500 to 3000 nM.
`Cc1nc2cc(N3CCO[C@@H](c4cnn(C)c4)C3)nc(-c3cccc(F)c3F)c2c(=O)n1C` [Example 227, (S)-5-(2,3-difluorophenyl)-2,3-dimethyl-7-(2-(1-methyl-1H-pyrazol-4-yl)morpholino)pyrido[4,3-d]pyrimidin-4(3H)-one]: the Emax entry was “+++ (Emax>200 and ≤300)”; the EC50 was in the range of 3000 to 100000 nM.
For the compound `Cc1nc2cc(N3CCC[C@H](c4ccccc4)C3)nc(-c3ccc(Cl)cc3F)c2c(=O)n1C` [Example 213, (R)-5-(4-chloro-2-fluorophenyl)-2,3-dimethyl-7-(3-phenylpiperidin-1-yl)pyrido[4,3-d]pyrimidin-4(3H)-one], the Emax result is listed as “++++ (Emax>300)” and the EC50 is 3000 to 100000 nM.
On to `Cc1nc2cc([C@@H]3CCO[C@H](c4cnn(C)c4)C3)nc(-c3ccc(Cl)cc3F)c2c(=O)n1C` (single isomer, unassigned) [Example 163], for which the Emax result is “+++ (Emax>200 and ≤300)”; the EC50 was in the range of 3000 to 100000 nM.
Regarding `Cc1cc([C@@H]2C[C@H](c3cc4nc(C)n(C)c(=O)c4c(-c4ccc(Cl)cc4F)n3)CCO2)ccn1` (single isomer, unassigned) [Example 170], the Emax result was “+++ (Emax>200 and ≤300)”; the concentration giving a half-maximal response (EC50) is 500 to 3000 nM.
Turning to `CCCn1c(C)nc2cc(N3CCO[C@H](c4cnn(C)c4)C3)nc(-c3ncc(Cl)cc3C)c2c1=O` [Example 195, (R)-5-(5-chloro-3-methylpyridin-2-yl)-2-methyl-7-(2-(1-methyl-1H-pyrazol-4-yl)morpholino)-3-propylpyrido[4,3-d]pyrimidin-4(3H)-one], the Emax result was “+ (Emax>45 and ≤100)”; the EC50 lay in the range of 3000 to 100000 nM.
Turning to `CCCn1c(C)nc2cc(N3CCO[C@@H](CF)C3)nc(-c3ccc(Cl)cc3F)c2c1=O` [Example 192, (R)-5-(4-chloro-2-fluorophenyl)-7-(2-(fluoromethyl)morpholino)-2-methyl-3-propylpyrido[4,3-d]pyrimidin-4(3H)-one], the Emax result was “++++ (Emax>300)” and the EC50 lay within 500 to 3000 nM.
The matching figures for `CCn1cc([C@H]2CN(c3cc4nc(C)n(C)c(=O)c4c(-c4ccc(Cl)cc4F)n3)CCO2)cn1` (single isomer, unassigned) [Example 23]: “++++ (Emax>300)” and less than 50 nM.
In the case of `Cc1nc2cc(N3CCO[C@@H](c4cnn(C)c4)C3)nc(-c3ccc(Cl)cc3F)c2c(=O)n1CC(F)(F)F` [Example 19, 5-(4-chloro-2-fluorophenyl)-2-methyl-7-((2S)-2-(1-methyl-1H-pyrazol-4-yl)-4-morpholinyl)-3-(2,2,2-trifluoroethyl)pyrido[4,3-d]pyrimidin-4(3H)-one], the Emax entry is reported as “++++ (Emax>300)” and the EC50 is less than 50 nM.
For `Cc1c([C@@H]2CN(c3cc4nc(C)n(C)c(=O)c4c(-c4ccc(Cl)cc4F)n3)CCO2)cnn1C` (single isomer, unassigned) [Example 66], the Emax result is “+++ (Emax>200 and ≤300)”; the EC50 fell in the range of 50 to 500 nM.
Take `COc1cc([C@@H]2CN(c3cc4nc(C)n(C)c(=O)c4c(-c4ccc(Cl)cc4F)n3)CCO2)ccn1` [Example 243, (R)-5-(4-chloro-2-fluorophenyl)-7-(2-(2-methoxypyridin-4-yl)morpholino)-2,3-dimethylpyrido[4,3-d]pyrimidin-4(3H)-one]: the Emax result is “++++ (Emax>300)” and the half-maximal effective concentration (EC50) was less than 50 nM.
Take `Cc1nc2cc(N3CCO[C@@H]([C@H]4CCOC4)C3)nc(-c3ccc(Cl)cc3F)c2c(=O)n1C` (single isomer, unassigned) [Example 42]: the Emax entry is “++++ (Emax>300)” and the EC50 was in the range of 50 to 500 nM.
`Cc1nc2cc(N3CC[C@H](C(F)(F)F)C3)nc(-c3ccc(Cl)cc3F)c2c(=O)n1C` [Example 257, (S)-5-(4-chloro-2-fluorophenyl)-2,3-dimethyl-7-(3-(trifluoromethyl)pyrrolidin-1-yl)pyrido[4,3-d]pyrimidin-4(3H)-one]: the Emax entry was “++ (Emax>100 and ≤200)”; the EC50 is 500 to 3000 nM.
Turning to `Cc1nc2cc(N3CCC[C@H](c4ccncc4)C3)nc(-c3ccc(Cl)cc3F)c2c(=O)n1C` [Example 233, (R)-5-(4-chloro-2-fluorophenyl)-2,3-dimethyl-7-(3-(pyridin-4-yl)piperidin-1-yl)pyrido[4,3-d]pyrimidin-4(3H)-one], the Emax entry is recorded as “++++ (Emax>300)” and the EC50 is 50 to 500 nM.
On to `Cc1nc2cc(N3CCO[C@@H](c4cnn(C(C)F)c4)C3)nc(-c3ccc(Cl)cc3F)c2c(=O)n1C` (stereo partly drawn) [Example 129, 5-(4-chloro-2-fluorophenyl)-7-((2S)-2-(1-(1-fluoroethyl)-1H-pyrazol-4-yl)-4-morpholinyl)-2,3-dimethylpyrido[4,3-d]pyrimidin-4(3H)-one], for which the Emax entry is “+++ (Emax>200 and ≤300)”; the EC50 is less than 50 nM.
Take `Cc1nc2cc(N3CC[C@H](N(C)C)C3)nc(-c3ccc(Cl)cc3F)c2c(=O)n1C` [Example 255, (S)-5-(4-chloro-2-fluorophenyl)-7-(3-(dimethylamino)pyrrolidin-1-yl)-2,3-dimethylpyrido[4,3-d]pyrimidin-4(3H)-one]: the Emax result was “+++ (Emax>200 and ≤300)”; the EC50 fell in the range of 3000 to 100000 nM.
Regarding `Cc1nc2cc(N3CCCC(C4CNC(=O)C4)C3)nc(-c3ccc(Cl)cc3F)c2c(=O)n1C` (stereo not shown) [Example 106, 5-(4-chloro-2-fluorophenyl)-2,3-dimethyl-7-(3-(5-oxo-3-pyrrolidinyl)-1-piperidinyl)-pyrido[4,3-d]pyrimidin-4(3H)-one], the Emax result was “+++ (Emax>200 and ≤300)”; the EC50 was in the range of 50 to 500 nM.
For `Cc1nc2cc(N3CCC[C@H](c4ccncc4)C3)nc(-c3ccc(Cl)cc3F)c2c(=O)n1C` (single isomer, unassigned) [Example 114], the Emax result was “+++ (Emax>200 and ≤300)”; the EC50 lay in the range of 50 to 500 nM.
As to `Cc1nc2cc(N3CCO[C@H](c4ccnc(Cl)c4)C3)nc(-c3ccc(Cl)cc3F)c2c(=O)n1C` (single isomer, unassigned) [Example 88], the Emax result was “+++ (Emax>200 and ≤300)”; the EC50 fell in the range of 500 to 3000 nM.
Regarding `Cc1nc2cc(N3C[C@@H](c4ccsc4)O[C@@H](C)C3)nc(-c3ccc(Cl)cc3F)c2c(=O)n1C` (single isomer, unassigned) [Example 72], the Emax result is “++++ (Emax>300)” and the EC50 fell in the range of 500 to 3000 nM.
On to `Cn1cc([C@H]2CN(c3cc4ncn(C)c(=O)c4c(-c4ccc(Cl)cc4F)n3)CCO2)cn1` [Example 158, 5-(4-chloro-2-fluorophenyl)-3-methyl-7-((2S)-2-(1-methyl-1H-pyrazol-4-yl)-4-morpholinyl)pyrido[4,3-d]pyrimidin-4(3H)-one], for which the Emax result was “+++ (Emax>200 and ≤300)”; the EC50 was in the range of 500 to 3000 nM.

For orientation: EC50 means the concentration that produces a half-maximal response.
